Assay results reported in US20240122975A1, “IN VITRO METHODS AND COMPOSITIONS FOR ENHANCING THE ACTIVATION OF DENDRITIC CELLS AND T CELLS, AND FOR INDUCING A TH-1 IMMUNE RESPONSE” (Northwest Biotherapeutics, Inc., priority 2019, published 2024).

Tested on: Immature cryopreserved C57BL/6 and BALB/c DCs
Test: Luminex xMAP cytokine production by cryopreserved murine immature DCs primed with TLR agonist then oxPAPC or PGPC (Example 5)
Format: cell-based, C57BL/6 and BALB/c mice
Conditions: TLR agonist stimulated murine DCs; increasing concentrations of lipid (1-90 μg/ml, 48 hours)
Protocol: Immature cryopreserved C57BL/6 and BALB/c DCs (Cellero) were rapidly thawed in a water bath at 37° C. and the cells were resuspended in 10 times the volume of RPMI 1640/10% FBS/penicillin/streptomycin/L-glutamine/2-ME. Cells were washed twice using complete media. Thawed cells were plated in triplicate at 2×10^5 cells/well in a 96-well flat bottom TC plate. DCs were primed with 1 μg/ml of LPS (Sigma Aldrich), 1:400 dilution of hBCG (Organon Teknika/Cognate), 1 μg/ml of R848 (Sigma Aldrich), 1 μg/ml Pam2 (Invivogen), 1 μg/ml Pam3 (Invivogen), and 25 μg/ml of Poly I:C HMW (“high molecular weight”; Invivogen) for 3 hrs. Titrated concentrations of oxPAPC (Invivogen) or PGPC (Cayman)—at 1 μg/ml, 3 μg/ml, 10 μg/ml, 30 μg/ml, and 90 μg/ml—were added to appropriate samples and cultured for an additional 48 hours. Cytokine production in 100 μl of culture medium was assessed by a mouse cytokine and chemokine panel, across 26 protein targets (IFNγ; IL12 p70; IL13; IL1β; IL2; IL4; IL5; IL6; TNFα; GM-CSF; IL18; IL10; IL17A; IL22; IL23; IL27; IL9; GROα; IP10; MCP1; MCP3; MIP1α; MIP1β; MIP2; RANTES; and Eotaxin), using Luminex xMAP® multiplex technology using the manufacturer's. The xMAP system is an immunoassay system that can simultaneously detect many targets in a single sample.

Compound: CCCCCCCCCCCCCCCC(=O)OCC(COP(=O)([O-])OCC[N+](C)(C)C)OC(=O)CCCC(=O)O (stereo not shown) [PGPC, 1-palmitoyl-2-glutaryl phosphatidylcholine]
- production of IL-1β: upregulated production
